Molecules are shown by their SMILES.

GLP-1R, sequence (P43220 24-463): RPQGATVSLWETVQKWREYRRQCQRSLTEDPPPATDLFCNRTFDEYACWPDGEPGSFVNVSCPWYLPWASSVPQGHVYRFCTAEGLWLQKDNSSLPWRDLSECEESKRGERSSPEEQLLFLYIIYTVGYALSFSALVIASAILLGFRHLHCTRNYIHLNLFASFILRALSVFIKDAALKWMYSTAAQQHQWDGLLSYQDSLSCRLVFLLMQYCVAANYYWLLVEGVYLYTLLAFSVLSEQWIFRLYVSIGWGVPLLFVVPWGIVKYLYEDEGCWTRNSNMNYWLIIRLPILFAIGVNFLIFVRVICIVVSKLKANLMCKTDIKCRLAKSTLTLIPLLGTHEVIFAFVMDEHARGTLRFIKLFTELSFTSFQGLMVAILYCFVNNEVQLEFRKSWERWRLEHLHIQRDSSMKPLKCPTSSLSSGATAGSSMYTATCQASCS

The assay concerns the target GLP-1R (Homo sapiens, UniProt P43220). Description: GLP-1R agonist cAMP stimulation assay (HTRF cAMP). Format: cell-based. The conditions noted are these: HEK293 cell line expressing GLP-1 target; HTRF cAMP agonist mode, 30 min at RT. In outline: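 Read-out was HTRF (665/615 ratio), interpolated onto a cAMP standard curve and normalised to DMSO (0%) and maximal GLP-1(7-37) reference (100%) wells. Assay: GLP-1R cells at 1.0×E5/mL incubated with compound dilution series (3-fold, 10 points) for 30 min at room temperature before 60 min detection.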
In turn, `CC(C)c1n[nH]c2ccc(C(=O)Nc3ccc4c(c3)nc(C3CC35CCC(c3cccc(OCc6ccc(Cl)cc6F)n3)CC5)n4CC3CCO3)cc12` (stereo not drawn) [Compound 251] came in with an EC50 of 2.22 nM. The figure for `O=C(Nc1ccc2c(c1)nc(C1CC13CCC(c1cccc(OCc4ccc(Cl)cc4F)n1)CC3)n2CC1CCO1)c1ccc2[nH]nc(C3CC3)c2c1` (stereo not drawn) [Compound 252] is 1.03 nM; for `Cc1n[nH]c2c(C(F)(F)F)cc(C(=O)Nc3ccc4c(c3)nc(C3CC35CCN(c3cccc(OCc6ccc(Cl)cc6F)n3)CC5)n4C[C@@H]3CCO3)cc12` (stereo partly drawn) [Compound 253] it is 2.01 nM; for `O=C(Nc1ccc2c(c1)nc(C1CC13CCN(c1cccc(OCc4ccc(Cl)cc4F)n1)CC3)n2C[C@@H]1CCO1)c1cc(F)c2c(c1)C1(CC1)C(=O)N2` (stereo partly drawn) [Compound 254] it is 1.92 nM. The figure for `Cc1n[nH]c2c(F)cc(C(=O)Nc3ccc4c(c3)nc(C(F)(F)N3CC=C(c5cccc(OCc6ccc(Cl)cc6F)n5)CC3)n4C[C@@H]3CCO3)cc12` [Compound 255] is 0.32 nM.

In the case of `Cc1n[nH]c2c(C)cc(C(=O)Nc3ccc4c(c3)nc(C(F)(F)N3CC=C(c5cccc(OCc6ccc(Cl)cc6F)n5)CC3)n4C[C@@H]3CCO3)cc12` [Compound 256], the EC50 is 12.5 nM. The figure for `Cc1n[nH]c2ccc(C(=O)Nc3ccc4c(c3)nc(C(F)(F)N3CC=C(c5cccc(OCc6ccc(Cl)cc6F)n5)CC3)n4C[C@@H]3CCO3)cc12` [Compound 257] is 15.1 nM; for `O=C(Nc1ccc2c(c1)nc(C(F)(F)N1CC=C(c3cccc(OCc4ccc(Cl)cc4F)n3)CC1)n2C[C@@H]1CCO1)c1ccc2[nH]nc(C3CC3)c2c1` [Compound 258] it is 31.8 nM. The figure for `CCn1cncc1Cn1c(CN2CCC(c3cccc(OCc4ccc(Cl)cc4F)n3)CC2)nc2cc(NC(=O)c3cc(F)c4[nH]nc(C)c4c3)ccc21` [Compound 259] is 0.91 nM; for `COCCn1c(CN2CCC(c3cccc(OCc4ccc(Cl)cc4F)n3)CC2)nc2cc(NC(=O)c3cc(C)c4[nH]nc(C)c4c3)ccc21` [Compound 260] it is 1.03 nM. To `Cc1n[nH]c2ccc(C(=O)Nc3ccc4c(c3)nc(CN3CCC(c5cccc(OCc6ccc(Cl)cc6F)n5)CC3)n4CCOC(F)(F)F)cc12` [Compound 261] belongs 0.81 nM. For `Cc1n[nH]c2c(F)cc(NC(=O)c3ccc4nc(CN5CC=C(c6cccc(OCc7ccc(Cl)cc7F)n6)CC5)n(CC5CCO5)c4c3)cc12` (stereo not drawn) [Compound 262], the EC50 is 3.12 nM. To `Cc1n[nH]c2ccc(NC(=O)c3ccc4nc(CN5CC=C(c6cccc(OCc7ccc(Cl)cc7F)n6)CC5)n(CC5CCO5)c4c3)cc12` (stereo not drawn) [Compound 263] belongs 5.78 nM; to `Cc1n[nH]c2c(C)cc(NC(=O)c3ccc4nc(CN5CC=C(c6cccc(OCc7ccc(Cl)cc7F)n6)CC5)n(CC5CCO5)c4c3)cc12` (stereo not drawn) [Compound 264], 4.22 nM; to `Cc1cc(NC(=O)c2ccc3nc(CN4CC=C(c5cccc(OCc6ccc(Cl)cc6F)n5)CC4)n(CC4CCO4)c3c2)cc2c(F)n[nH]c12` (stereo not drawn) [Compound 265], 45.9 nM.

In turn, `O=C(Nc1ccc2c(c1)C1(CC1)C(=O)N2)c1ccc2nc(CN3CC=C(c4cccc(OCc5ccc(Cl)cc5F)n4)CC3)n(C[C@@H]3CCO3)c2c1` [Compound 266] showed an EC50 of 3.19 nM. To `Cc1cc(NC(=O)c2ccc3nc(CN4CC=C(c5cccc(OCc6ccc(Cl)cc6F)n5)CC4)n(C[C@@H]4CCO4)c3c2)cc2c1NC(=O)C21CC1` [Compound 267] belongs 1.99 nM; to `Fc1cc(Cl)ccc1COc1cccc(C2=CCN(Cc3nc4ccc(CNc5cc(F)c6[nH]ncc6c5)cc4n3C[C@@H]3CCO3)CC2)n1` [Compound 268], 3.64 nM; to `O=C(Nc1ccc2[nH]nc(Cl)c2c1)c1ccc2nc(CN3CC=C(c4cccc(OCc5ccc(Cl)cc5F)n4)CC3)n(CC3CCO3)c2c1` (stereo not drawn) [Compound 269], 10.8 nM. Take `O=C(Nc1ccc2[nH]c(=O)[nH]c2c1)c1ccc2nc(CN3CC=C(c4cccc(OCc5ccc(Cl)cc5F)n4)CC3)n(C[C@@H]3CCO3)c2c1` [Compound 270]: a half-maximal effect (EC50) was put at 1.02 nM. This EC50 lies about 11-fold lower than the previous one. To `O=C(Nc1cc(F)c2c(c1)C1(CC1)C(=O)N2)c1ccc2nc(CN3CC=C(c4cccc(OCc5ccc(Cl)cc5F)n4)CC3)n(C[C@@H]3CCO3)c2c1` [Compound 271] belongs 0.97 nM; to `Cc1n[nH]c2c(C(F)(F)F)cc(NC(=O)c3ccc4nc(CN5CC=C(c6cccc(OCc7ccc(Cl)cc7F)n6)CC5)n(CC5CCO5)c4c3)cc12` (stereo not drawn) [Compound 272], 3.21 nM; to `O=C(Nc1cc(C(F)(F)F)c2c(c1)C1(CC1)C(=O)N2)c1ccc2nc(CN3CC=C(c4cccc(OCc5ccc(Cl)cc5F)n4)CC3)n(C[C@@H]3CCO3)c2c1` [Compound 273], 2.78 nM. The figure for `Cc1n[nH]c2c(F)cc(NC(=O)c3ccc4nc(CN5CC=C(c6cccc(OCc7ccc(C#N)cc7F)n6)CC5)n(CC5CCO5)c4c3)cc12` (stereo not drawn) [Compound 274] is 1.65 nM; for `Cc1n[nH]c2ccc(NC(=O)c3ccc4nc(CN5CC=C(c6cccc(OCc7ccc(C#N)cc7F)n6)CC5)n(CC5CCO5)c4c3)cc12` (stereo not drawn) [Compound 275] it is 6.21 nM. To `Cc1n[nH]c2c(F)cc(C(=O)Nc3ccc4nc(CN5CC=C(c6cccc(OCc7ccc(Cl)cc7F)n6)CC5)n(CC5CCO5)c4c3)cc12` (stereo not drawn) [Compound 277] belongs 0.76 nM; to `Cc1n[nH]c2ccc(C(=O)Nc3ccc4nc(CN5CC=C(c6cccc(OCc7ccc(Cl)cc7F)n6)CC5)n(CC5CCO5)c4c3)cc12` (stereo not drawn) [Compound 278], 3.18 nM. As for `Cc1n[nH]c2c(C)cc(C(=O)Nc3ccc4nc(CN5CC=C(c6cccc(OCc7ccc(Cl)cc7F)n6)CC5)n(CC5CCO5)c4c3)cc12` (stereo not drawn) [Compound 279], the EC50 was determined as 0.95 nM. The figure for `O=C(Nc1ccc2nc(CN3CC=C(c4cccc(OCc5ccc(Cl)cc5F)n4)CC3)n(CC3CCO3)c2c1)c1ccc2[nH]nc(F)c2c1` (stereo not drawn) [Compound 280] is 21 nM; for `O=C(Nc1ccc2nc(CN3CC=C(c4cccc(OCc5ccc(Cl)cc5F)n4)CC3)n(C[C@@H]3CCO3)c2c1)c1ccc2c(c1)C1(CC1)C(=O)N2` [Compound 281] it is 1.21 nM. The figure for `Cc1cc(C(=O)Nc2ccc3nc(CN4CC=C(c5cccc(OCc6ccc(Cl)cc6F)n5)CC4)n(C[C@@H]4CCO4)c3c2)cc2c1NC(=O)C21CC1` [Compound 282] is 4.32 nM; for `O=C(Nc1ccc2nc(CN3CC=C(c4cccc(OCc5ccc(Cl)cc5F)n4)CC3)n(C[C@@H]3CCO3)c2c1)c1cc(F)c2[nH]ncc2c1` [Compound 283] it is 10.2 nM; for `O=C(Nc1ccc2nc(CN3CC=C(c4cccc(OCc5ccc(Cl)cc5F)n4)CC3)n(CC3CCO3)c2c1)c1ccc2[nH]nc(Cl)c2c1` (stereo not drawn) [Compound 284] it is 9.85 nM. Take `O=C(Nc1ccc2nc(CN3CC=C(c4cccc(OCc5ccc(Cl)cc5F)n4)CC3)n(C[C@@H]3CCO3)c2c1)c1ccc2[nH]c(=O)[nH]c2c1` [Compound 285]: the EC50 worked out at 0.42 nM. To `O=C(Nc1ccc2nc(CN3CC=C(c4cccc(OCc5ccc(Cl)cc5F)n4)CC3)n(C[C@@H]3CCO3)c2c1)c1cc(F)c2c(c1)C1(CC1)C(=O)N2` [Compound 286] belongs 0.21 nM; to `Cc1n[nH]c2c(C(F)(F)F)cc(C(=O)Nc3ccc4nc(CN5CC=C(c6cccc(OCc7ccc(Cl)cc7F)n6)CC5)n(CC5CCO5)c4c3)cc12` (stereo not drawn) [Compound 287], 2.98 nM.

The record behind these values is patent publication US20230271949A1, “GLP-1R MODULATING COMPOUNDS” (ASCLETIS BIOSCIENCE CO., LTD., priority 2022, published 2023).
